Data taken from ChEMBL document CHEMBL1201862, “PubChem BioAssay data set” (2004).
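Cultured in 96-well plates, cells were exposed to test compound for 48 hours across five concentrations. GI50 is the concentration that inhibits growth by half.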 Calls of active or inactive are those of the source. Cut-off read from the data, not from the text of the source: active = GI50 up to about 1.1 µM and inactive = higher.

Legend:
Experiment in all cases: inhibition of tumour cell growth, NCI panel, 48 h
TK-10 = tested on: TK-10
CAKI-1 = tested on: CAKI-1
M19-MEL = tested on: M19-MEL
HOP-62 = tested on: HOP-62
OVCAR-4 = tested on: OVCAR-4
SK-OV-3 = tested on: SK-OV-3
786-0 = tested on: 786-0
ACHN = tested on: ACHN
OVCAR-8 = tested on: OVCAR-8
HCT-116 = tested on: HCT-116
OVCAR-5 = tested on: OVCAR-5
SK-MEL-28 = tested on: SK-MEL-28
NCI-H23 = tested on: NCI-H23
SF-295 = tested on: SF-295
DLD-1 = tested on: DLD-1
LXFL 529 = tested on: LXFL 529
KM-20L2 = tested on: KM-20L2
HL-60 = tested on: HL-60
HCT-15 = tested on: HCT-15
A549 = tested on: A549
CCRF-CEM = tested on: CCRF-CEM
RXF 393 = tested on: RXF 393
UACC-62 = tested on: UACC-62
SNB-75 = tested on: SNB-75
HOP-92 = tested on: HOP-92
NCI-H226 = tested on: NCI-H226
SF-268 = tested on: SF-268
OVCAR-3 = tested on: OVCAR-3
SN12C = tested on: SN12C
RXF 631 = tested on: RXF 631
DMS-114 = tested on: DMS-114
Malme-3M = tested on: Malme-3M
XF498 = tested on: XF498
SF-539 = tested on: SF-539
SK-MEL-2 = tested on: SK-MEL-2
M14 = tested on: M14
SNB-19 = tested on: SNB-19
SW-620 = tested on: SW-620
IGROV-1 = tested on: IGROV-1
NCI-H522 = tested on: NCI-H522
LOX IMVI = tested on: LOX IMVI
K562 = tested on: K562
HT-29 = tested on: HT-29
UACC-257 = tested on: UACC-257
COLO 205 = tested on: COLO 205
EKVX = tested on: EKVX
RPMI-8226 = tested on: RPMI-8226
DMS-273 = tested on: DMS-273
HCC 2998 = tested on: HCC 2998
MOLT-4 = tested on: MOLT-4
SK-MEL-5 = tested on: SK-MEL-5
NCI-H460 = tested on: NCI-H460
A498 = tested on: A498
KM12 = tested on: KM12
U-251 = tested on: U-251
HOP-18 = tested on: HOP-18

With `COc1ccc(-c2oc(/C=N/NC(N)=S)c([N+](=O)[O-])c2-c2ccc(OC)c(OC)c2)cc1OC` the GI50 (TK-10) was 34 µM (inactive), the GI50 (CAKI-1) was 32.1 µM (inactive) and the GI50 (M19-MEL) was 24.2 µM (inactive). For the same compound, the GI50 (HOP-62) was 28 µM (inactive), the GI50 (OVCAR-4) was 21.7 µM (inactive) and the GI50 (SK-OV-3) was 21 µM (inactive). For the same compound, the GI50 (786-0) was 27.1 µM (inactive), the GI50 (ACHN) was 18.5 µM (inactive) and the GI50 (OVCAR-8) was 23.9 µM (inactive). The GI50 (HCT-116) was 19.2 µM (inactive), the GI50 (OVCAR-5) was 48.3 µM (inactive) and the GI50 (SK-MEL-28) was 23.9 µM (inactive). The GI50 (NCI-H23) was 32 µM (inactive), the GI50 (SF-295) was 20.7 µM (inactive) and the GI50 (DLD-1) was 24.3 µM (inactive). For the same compound, the GI50 (LXFL 529) was 20.3 µM (inactive), the GI50 (KM-20L2) was 18.2 µM (inactive) and the GI50 (HL-60) was 21.7 µM (inactive). For the same compound, the GI50 (HCT-15) was 29.4 µM, the GI50 (A549) was 35.6 µM (inactive) and the GI50 (CCRF-CEM) was > 10 µM (inactive). The GI50 (RXF 393) was 13.2 µM (inactive), the GI50 (UACC-62) was 20.1 µM (inactive) and the GI50 (SNB-75) was 18 µM (inactive). The GI50 (HOP-92) was 24.2 µM (inactive), the GI50 (NCI-H226) was 28.1 µM (inactive) and the GI50 (SF-268) was 16.6 µM (inactive). The GI50 (OVCAR-3) was 16.7 µM (inactive), the GI50 (SN12C) was 36 µM (inactive) and the GI50 (RXF 631) was 30.4 µM (inactive). The GI50 (DMS-114) was 19.4 µM (inactive), the GI50 (Malme-3M) was 17.3 µM (inactive) and the GI50 (XF498) was 26.7 µM (inactive). The GI50 (SF-539) was 25.4 µM (inactive), the GI50 (SK-MEL-2) was 15.3 µM (inactive) and the GI50 (M14) was 20.7 µM (inactive). The GI50 (SNB-19) was 36.1 µM (inactive), the GI50 (SW-620) was 33.1 µM (inactive) and the GI50 (IGROV-1) was 28.3 µM (inactive). The GI50 (NCI-H522) was 23.6 µM (inactive), the GI50 (LOX IMVI) was 15.9 µM (inactive) and the GI50 (K562) was > 10 µM (inactive). For the same compound, the GI50 (HT-29) was 23.1 µM (inactive), the GI50 (UACC-257) was 31.8 µM (inactive) and the GI50 (COLO 205) was > 100 µM (inactive). For the same compound, the GI50 (EKVX) was 22.8 µM (inactive) and the GI50 (RPMI-8226) was 17 µM (inactive).

`O=C(O)CCN(CCCCN(CCC(=O)O)CCC(=O)O)CCC(=O)O` was tested, and the GI50 (TK-10) was > 100 µM (inactive), the GI50 (CAKI-1) was > 100 µM (inactive) and the GI50 (M19-MEL) was > 100 µM (inactive). For the same compound, the GI50 (HOP-62) was > 100 µM (inactive), the GI50 (OVCAR-4) was > 100 µM (inactive) and the GI50 (SK-OV-3) was > 100 µM (inactive). The GI50 (786-0) was > 100 µM (inactive), the GI50 (DMS-273) was > 100 µM (inactive) and the GI50 (ACHN) was > 100 µM (inactive). For the same compound, the GI50 (HCC 2998) was > 100 µM (inactive), the GI50 (MOLT-4) was > 100 µM (inactive) and the GI50 (OVCAR-8) was > 100 µM (inactive). For the same compound, the GI50 (HCT-116) was > 100 µM (inactive), the GI50 (OVCAR-5) was > 100 µM (inactive) and the GI50 (SK-MEL-28) was > 100 µM (inactive). For the same compound, the GI50 (NCI-H23) was > 100 µM (inactive), the GI50 (SF-295) was > 100 µM (inactive) and the GI50 (DLD-1) was > 100 µM (inactive). For the same compound, the GI50 (LXFL 529) was > 100 µM (inactive), the GI50 (HL-60) was > 100 µM (inactive) and the GI50 (HCT-15) was greater than 100 µM. The GI50 (A549) was > 100 µM (inactive), the GI50 (SK-MEL-5) was > 100 µM (inactive) and the GI50 (CCRF-CEM) was > 100 µM (inactive). The GI50 (UACC-62) was > 100 µM (inactive), the GI50 (SNB-75) was > 100 µM (inactive) and the GI50 (HOP-92) was > 100 µM (inactive). The GI50 (SF-268) was > 100 µM (inactive), the GI50 (OVCAR-3) was > 100 µM (inactive) and the GI50 (SN12C) was > 100 µM (inactive). The GI50 (NCI-H460) was > 100 µM (inactive), the GI50 (DMS-114) was > 100 µM (inactive) and the GI50 (A498) was > 100 µM (inactive). For the same compound, the GI50 (Malme-3M) was > 100 µM (inactive), the GI50 (XF498) was > 100 µM (inactive) and the GI50 (SF-539) was > 100 µM (inactive). The GI50 (SK-MEL-2) was > 100 µM (inactive), the GI50 (M14) was > 100 µM (inactive) and the GI50 (SW-620) was > 100 µM (inactive). For the same compound, the GI50 (IGROV-1) was > 100 µM (inactive), the GI50 (NCI-H522) was > 100 µM (inactive) and the GI50 (KM12) was > 100 µM (inactive). The GI50 (LOX IMVI) was > 100 µM (inactive), the GI50 (K562) was > 100 µM (inactive) and the GI50 (HT-29) was > 100 µM (inactive). The GI50 (U-251) was > 100 µM (inactive), the GI50 (COLO 205) was > 100 µM (inactive) and the GI50 (HOP-18) was > 100 µM (inactive). The GI50 (EKVX) was > 100 µM (inactive) and the GI50 (RPMI-8226) was > 100 µM (inactive).
